Values of other authors in paper PMC7168327, “Designed Antimicrobial Peptides for Topical Treatment of Antibiotic Resistant Acne Vulgaris” (Antibiotics, 2020).

How the values were obtained:
Conditions in all cases: cited from earlier work
[1] = system: C. acnes ATCC11827
Text: (§1) Table 1 Growth Inhibition of dAMPs (MICs, µg/mL) against C. acnes Isolates. | column: Antibiotic Sensitivity / Tetra ^#; Antibiotic Sensitivity / Ery ^#; Antibiotic Sensitivity / Clind ^#

[2] = system: C. acnes HL072PA1
Text: as §1

[3] = system: C. acnes HL043PA1
Text: as §1

[4] = system: C. acnes HL082PA2
Text: as §1

[5] = system: C. acnes HL053PA1
Text: as §1

[6] = system: C. acnes ATCC6919
Text: as §1

[7] = system: C. acnes HL007PA1
Text: as §1

[8] = system: C. acnes HL013PA1
Text: as §1

[9] = system: C. acnes HL043PA2
Text: as §1

[10] = system: C. acnes HL038PA1
Text: as §1

[11] = system: C. acnes HL056PA1
Text: as §1

[12] = system: C. acnes HL045PA1
Text: as §1

## CC[C@H]1OC(=O)[C@H](C)[C@@H](O[C@H]2C[C@@](C)(OC)[C@@H](O)[C@H](C)O2)[C@H](C)[C@@H](O[C@@H]2O[C@H](C)C[C@H](N(C)C)[C@H]2O)[C@](C)(O)C[C@@H](C)C(=O)[C@H](C)[C@@H](O)[C@]1(C)O [Ery, erythromycin]
[1]
  Antibiotic Sensitivity, Ery: S (S, sensitive)
[2]
  Antibiotic Sensitivity, Ery: R (erythromycin resistance MIC ≥ 0.5 μg/mL)
[3]
  Antibiotic Sensitivity, Ery: R (erythromycin resistance MIC ≥ 0.5 μg/mL)
[4]
  Antibiotic Sensitivity, Ery: R (erythromycin resistance MIC ≥ 0.5 μg/mL)
[5]
  Antibiotic Sensitivity, Ery: R (erythromycin resistance MIC ≥ 0.5 μg/mL)
[6]
  Antibiotic Sensitivity, Ery: S (S, sensitive)
[7]
  Antibiotic Sensitivity, Ery: R (erythromycin resistance MIC ≥ 0.5 μg/mL)
[8]
  Antibiotic Sensitivity, Ery: R (erythromycin resistance MIC ≥ 0.5 μg/mL)
[9]
  Antibiotic Sensitivity, Ery: R (erythromycin resistance MIC ≥ 0.5 μg/mL)
[10]
  Antibiotic Sensitivity, Ery: R (erythromycin resistance MIC ≥ 0.5 μg/mL)
[11]
  Antibiotic Sensitivity, Ery: R (erythromycin resistance MIC ≥ 0.5 μg/mL)
[12]
  Antibiotic Sensitivity, Ery: R (erythromycin resistance MIC ≥ 0.5 μg/mL)

## CN(C)[C@@H]1C(O)=C(C(N)=O)C(=O)[C@@]2(O)C(O)=C3C(=O)c4c(O)cccc4[C@@](C)(O)[C@H]3C[C@@H]12 [Tetra, tetracycline]
[1]
  Antibiotic Sensitivity, Tetra: S (S, sensitive)
[2]
  Antibiotic Sensitivity, Tetra: R (resistance to tetracycline (Tetra), MIC ≥ 1.0 μg/mL)
[3]
  Antibiotic Sensitivity, Tetra: R (resistance to tetracycline (Tetra), MIC ≥ 1.0 μg/mL)
[4]
  Antibiotic Sensitivity, Tetra: R (resistance to tetracycline (Tetra), MIC ≥ 1.0 μg/mL)
[5]
  Antibiotic Sensitivity, Tetra: R (resistance to tetracycline (Tetra), MIC ≥ 1.0 μg/mL)
[6]
  Antibiotic Sensitivity, Tetra: S (S, sensitive)
[7]
  Antibiotic Sensitivity, Tetra: R (resistance to tetracycline (Tetra), MIC ≥ 1.0 μg/mL)
[8]
  Antibiotic Sensitivity, Tetra: R (resistance to tetracycline (Tetra), MIC ≥ 1.0 μg/mL)
[9]
  Antibiotic Sensitivity, Tetra: R (resistance to tetracycline (Tetra), MIC ≥ 1.0 μg/mL)
[10]
  Antibiotic Sensitivity, Tetra: R (resistance to tetracycline (Tetra), MIC ≥ 1.0 μg/mL)
[11]
  Antibiotic Sensitivity, Tetra: R (resistance to tetracycline (Tetra), MIC ≥ 1.0 μg/mL)
[12]
  Antibiotic Sensitivity, Tetra: R (resistance to tetracycline (Tetra), MIC ≥ 1.0 μg/mL)

## CCC[C@@H]1C[C@@H](C(=O)N[C@@H]([C@H]2O[C@H](SC)[C@H](O)[C@@H](O)[C@H]2O)[C@H](C)Cl)N(C)C1 [Clind, clindamycin]
[1]
  Antibiotic Sensitivity, Clind: S (S, sensitive)
[2]
  Antibiotic Sensitivity, Clind: R (Antibiotic resistance to clindamycin defined by MIC ≥ 32 μg/mL)
[3]
  Antibiotic Sensitivity, Clind: R (Antibiotic resistance to clindamycin defined by MIC ≥ 32 μg/mL)
[4]
  Antibiotic Sensitivity, Clind: S (S, sensitive)
[5]
  Antibiotic Sensitivity, Clind: R (Antibiotic resistance to clindamycin defined by MIC ≥ 32 μg/mL)
[6]
  Antibiotic Sensitivity, Clind: S (S, sensitive)
[7]
  Antibiotic Sensitivity, Clind: R (Antibiotic resistance to clindamycin defined by MIC ≥ 32 μg/mL)
[8]
  Antibiotic Sensitivity, Clind: R (Antibiotic resistance to clindamycin defined by MIC ≥ 32 μg/mL)
[9]
  Antibiotic Sensitivity, Clind: R (Antibiotic resistance to clindamycin defined by MIC ≥ 32 μg/mL)
[10]
  Antibiotic Sensitivity, Clind: R (Antibiotic resistance to clindamycin defined by MIC ≥ 32 μg/mL)
[11]
  Antibiotic Sensitivity, Clind: R (Antibiotic resistance to clindamycin defined by MIC ≥ 32 μg/mL)
[12]
  Antibiotic Sensitivity, Clind: R (Antibiotic resistance to clindamycin defined by MIC ≥ 32 μg/mL)
